Laboratory results published in the supplement of paper PMC10307832.

Tests used:
Assay in all cases: relative viability (nuclei count vs DMSO), 5 days (fraction); higher = more cells survive
[1] = compound: C1=CC2=NC=CN=C2C=C1/C=C/3\C(=O)NC(=O)S3 + Cc1nc(NC(=O)N2CCC[C@H]2C(N)=O)sc1-c1ccnc(C(C)(C)C(F)(F)F)c1 [Alpelisib] (partner 2 µM)
In short: (§1)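 Lung cancer cell lines were pin-tool dosed in 1536-well plates on the day after seeding, with either a lone drug or a fixed anchor-drug dose plus five library-drug doses (not always all listed) in √10 steps. Nuclei were counted on 4× images after 5 days. Relative viability is the ratio of treated-well to vehicle-well nuclei counts, with each value a median of duplicate plates.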

[2] = compound: CCN1CCN(c2ccc(Nc3cc(N(C)C(=O)Nc4c(Cl)c(OC)cc(OC)c4Cl)ncn3)cc2)CC1 [BGJ398] + C[C@@H](Oc1cc(-c2cnn(C3CCNCC3)c2)cnc1N)c1c(Cl)ccc(F)c1Cl [Crizotinib] (partner 1 µM)
In short: as §1

[3] = compound: C1=CC2=NC=CN=C2C=C1/C=C/3\C(=O)NC(=O)S3 + Cc1nc(Nc2ncc(C(=O)Nc3c(C)cccc3Cl)s2)cc(N2CCN(CCO)CC2)n1 [Dasatinib] (partner 0.075 µM)
In short: as §1

[4] = compound: CCN1CCN(c2ccc(Nc3cc(N(C)C(=O)Nc4c(Cl)c(OC)cc(OC)c4Cl)ncn3)cc2)CC1 [BGJ398] + COc1cc2c(Oc3ccc(NC(=O)C4(C(=O)Nc5ccc(F)cc5)CC4)cc3F)ccnc2cc1OCCCN1CCOCC1 [Foretinib] (partner 0.25 µM)
In short: as §1

Cell Line | relative viability ([1]; first compound 0.02 µM) | relative viability ([1]; first compound 0.06325 µM) | relative viability ([1]; first compound 0.2 µM) | relative viability ([1]; first compound 0.6325 µM) | relative viability ([1]; first compound 2 µM) | relative viability ([2]; first compound 0.01 µM) | relative viability ([2]; first compound 0.03162 µM) | relative viability ([2]; first compound 0.1 µM) | relative viability ([2]; first compound 0.3162 µM) | relative viability ([2]; first compound 1 µM) | relative viability ([3]; first compound 0.02 µM) | relative viability ([3]; first compound 0.06325 µM) | relative viability ([3]; first compound 0.2 µM) | relative viability ([3]; first compound 0.6325 µM) | relative viability ([3]; first compound 2 µM) | relative viability ([4]; first compound 0.01 µM) | relative viability ([4]; first compound 0.03162 µM) | relative viability ([4]; first compound 0.1 µM) | relative viability ([4]; first compound 0.3162 µM) | relative viability ([4]; first compound 1 µM)
201T | 0.955 | 1.05 | 1.01 | 0.978 | 0.877 | 1.12 | 0.988 | 0.996 | 1.01 | 0.981 | 0.543 | 0.619 | 0.583 | 0.556 | 0.28 | 1.18 | 1.1 | 1.05 | 0.958 | 1.02
A549 | 0.847 | 1.1 | 0.67 | 0.729 | 0.557 | 0.73 | 0.811 | 0.758 | 0.843 | 0.783 |  |  |  |  |  | 0.919 | 0.939 | 0.97 | 0.944 | 1.09
A-427 | 1.06 | 1.08 | 1.1 | 1.07 | 1.12 | 0.905 | 0.72 | 0.698 | 0.598 | 0.517 | 0.685 | 0.753 | 0.692 | 0.659 | 0.541 | 1.09 | 0.919 | 0.954 | 0.715 | 0.623
ABC-1 | 1 | 1.14 | 0.933 | 1.01 | 1.02 | 1.05 | 1.36 | 1.19 | 0.925 | 1.42 | 0.507 | 0.757 | 0.488 | 0.611 | 0.538 | 0.962 | 1.19 | 1.05 | 1.26 | 0.973
BEN | 1.07 | 0.877 | 1.22 | 0.911 | 1.09 | 0.735 | 0.871 | 0.893 | 0.81 | 0.797 | 0.362 | 0.35 | 0.297 | 0.352 | 0.252 | 0.722 | 0.866 | 0.568 | 0.395 | 0.453
CAL-12T | 1.3 | 1.11 | 1.11 | 1.3 | 1.15 | 0.68 | 0.796 | 0.548 | 0.811 | 0.631 | 0.417 | 0.34 | 0.439 | 0.304 | 0.139 | 1.04 | 1.13 | 1.04 | 1.11 | 1.12
COR-L23 | 0.736 | 0.896 | 0.83 | 0.72 | 0.696 | 0.588 | 0.826 | 0.598 | 0.762 | 0.653 | 0.446 | 0.481 | 0.395 | 0.477 | 0.344 | 0.955 | 1.09 | 1.04 | 0.865 | 1.14
COR-L 105 | 1.22 | 0.861 | 0.901 | 1.02 | 0.751 | 0.737 | 0.844 | 0.879 | 0.86 | 0.819 | 0.343 | 0.344 | 0.376 | 0.402 | 0.279 | 1.05 | 1.13 | 1.09 | 1.07 | 0.892
Calu-6 | 1.02 | 1.11 | 1.04 | 0.902 | 0.845 | 0.737 | 0.86 | 0.948 | 0.745 | 0.781 |  |  |  |  |  | 0.879 | 0.819 | 0.912 | 0.836 | 0.88
ChaGo-K-1 |  |  |  |  |  | 1.09 | 1.18 | 1.21 | 0.991 | 1.05 | 0.611 | 0.574 | 0.596 | 0.544 | 0.499 | 0.899 | 0.991 | 0.914 | 1.01 | 0.907
EBC-1 | 0.819 | 1.05 | 0.788 | 0.849 | 0.854 | 0.198 | 0.201 | 0.17 | 0.199 | 0.197 |  |  |  |  |  | 0.0959 | 0.0812 | 0.0909 | 0.109 | 0.108
EKVX | 0.834 | 0.78 | 0.869 | 0.784 | 0.771 | 0.819 | 0.919 | 0.901 | 0.991 | 0.917 | 0.515 | 0.356 | 0.701 | 0.524 | 0.427 | 0.763 | 0.409 | 0.805 | 0.643 | 0.686
EMC-BAC-2 | 0.707 | 0.784 | 0.756 | 0.709 | 0.75 | 0.726 | 0.816 | 0.798 | 0.746 | 0.669 | 0.309 | 0.297 | 0.33 | 0.322 | 0.224 | 1.12 | 1.02 | 0.98 | 1.05 | 0.992
EPLC-272H | 1.05 | 1.05 | 1.01 | 0.833 | 0.939 | 0.903 | 0.814 | 0.964 | 0.8 | 0.968 | 0.43 | 0.462 | 0.421 | 0.294 | 0.153 | 0.794 | 0.534 | 0.84 | 0.724 | 0.74
H3255 | 0.734 | 0.903 | 0.661 | 0.907 | 0.717 | 0.798 |  | 0.877 | 0.634 | 0.829 | 0.365 | 0.329 | 0.348 | 0.379 | 0.38 | 0.985 |  | 0.961 | 0.386 | 0.878
HARA | 0.749 | 0.696 | 0.844 | 0.806 | 0.859 | 0.953 | 1.06 | 1.04 | 1.02 | 1.07 | 0.278 | 0.315 | 0.3 | 0.243 | 0.194 | 0.941 | 0.901 | 0.829 | 0.905 | 0.79
HCC-15 | 0.813 | 0.923 | 0.884 | 0.849 | 0.839 | 0.861 | 0.825 | 0.782 | 0.885 | 0.9 | 0.665 | 0.644 | 0.687 | 0.55 | 0.42 | 0.978 | 1.1 | 1.04 | 1.13 | 1.07
